Key:
[1] = target: T1, MTHFD1 recombinant human enzyme (Homo sapiens, UniProt P11586); assay: MTHFD1 inhibition assay (NAD(P)H-Glo luminescence); conditions: MTHFD1 IC50, recombinant human enzyme 200 nM, NADP, band
T1 sequence (P11586 2-291 limits assumed): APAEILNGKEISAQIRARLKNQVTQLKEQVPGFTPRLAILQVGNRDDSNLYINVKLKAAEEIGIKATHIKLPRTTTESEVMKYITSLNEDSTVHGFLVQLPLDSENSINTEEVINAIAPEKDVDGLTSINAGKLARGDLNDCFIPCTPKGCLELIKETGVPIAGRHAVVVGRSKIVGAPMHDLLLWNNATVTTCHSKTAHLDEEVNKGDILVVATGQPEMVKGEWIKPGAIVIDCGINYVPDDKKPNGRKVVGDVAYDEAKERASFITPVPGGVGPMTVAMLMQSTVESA

[2] = target: T2, MTHFD2 recombinant human enzyme (Homo sapiens, UniProt P13995); assay: MTHFD2 inhibition assay (NAD(P)H-Glo luminescence); conditions: for MTHFD1/MTHFD2 IC50 ratio: selectivity of MTHFD2 inhibition over MTHFD1, band
T2 sequence (P13995 36-350): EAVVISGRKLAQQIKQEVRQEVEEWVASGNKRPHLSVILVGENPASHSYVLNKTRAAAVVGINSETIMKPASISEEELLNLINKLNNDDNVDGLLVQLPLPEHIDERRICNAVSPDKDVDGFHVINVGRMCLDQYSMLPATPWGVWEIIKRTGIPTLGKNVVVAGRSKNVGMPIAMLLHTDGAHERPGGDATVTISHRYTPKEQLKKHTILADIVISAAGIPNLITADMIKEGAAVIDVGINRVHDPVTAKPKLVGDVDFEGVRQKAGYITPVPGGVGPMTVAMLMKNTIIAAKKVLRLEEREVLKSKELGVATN

Row | Compound | IC50 [1] [nM] | IC50 [2] [nM] | MTHFD1/MTHFD2 IC50 ratio [2]
1 | COC[C@H]1CN(c2cc(C)c3c4c(c(=O)oc3c2C)CN(C(=O)c2cc(N3CCCC3)c(C(=O)NS(=O)(=O)C3(C)CC3)cc2F)CC4)CCN1C [Example 142, (R)-5-fluoro-4-(8-(3-(methoxymethyl)-4-methylpiperazin-1-yl)-7,10-dimethyl-5-oxo-1,3,4,5-tetrahydro-2H-chromeno[3,4-c]pyridine-3-carbonyl)-N-((1-methylcyclopropyl)sulfonyl)-2-(pyrrolidin-1-yl)benzamide] | 10 to 100 | 10 to 100 | G (^ 3 to 9.0)
2 | COC[C@H]1CN(c2ccc3c4c(c(=O)oc3c2C)CN(C(=O)c2cc(N(C)C)c(C(=O)NS(=O)(=O)N3C5CCC3CC5)cc2F)CC4)CCN1C [Example 188, (R)-N-((7-azabicyclo[2.2.1]heptan-7-yl)sulfonyl)-2-(dimethylamino)-5-fluoro-4-(8-(3-(methoxymethyl)-4-methylpiperazin-1-yl)-7-methyl-5-oxo-1,3,4,5-tetrahydro-2H-chromeno[3,4-c]pyridine-3-carbonyl)benzamide] | 1000 to 5000 | 10 to 100 | H (>9.0 to 30)
3 | COC[C@H]1CN(c2cc(C)c3c4c(c(=O)oc3c2C)CN(C(=O)c2ccc(C(=O)NS(=O)(=O)N3CCCC3)c(N3CCC[C@@H]3C)c2)CC4)CCN1C [Example 122, 4-(8-((R)-3-(methoxymethyl)-4-methylpiperazin-1-yl)-7,10-dimethyl-5-oxo-1,3,4,5-tetrahydro-2H-chromeno[3,4-c]pyridine-3-carbonyl)-2-((S)-2-methylpyrrolidin-1-yl)-N-(pyrrolidin-1-ylsulfonyl)benzamide] | 10 to 100 | 10 to 100 | F (<3)
4 | COC[C@H]1CN(c2cc(C)c3c4c(c(=O)oc3c2C)CN(C(=O)c2ccc(C(=O)NS(=O)(=O)N(C)C)c(OC3CCCC3)c2F)CC4)CCN1C [Example 43, (R)-2-(cyclopentyloxy)-N-(N,N-dimethylsulfamoyl)-3-fluoro-4-(8-(3-(methoxymethyl)-4-methylpiperazin-1-yl)-7,10-dimethyl-5-oxo-1,3,4,5-tetrahydro-2H-chromeno[3,4-c]pyridine-3-carbonyl)benzamide] | 1 to 10 | 1 to 10 | F (<3)
5 | COC[C@H]1CN(c2cc(C)c3c4c(c(=O)oc3c2C)CN(C(=O)c2ccc(C(=O)NS(=O)(=O)C3(C)CC3)c(N(C)C)c2)CC4)CCN1C [Example 79, (R)-2-(dimethylamino)-4-(8-(3-(methoxymethyl)-4-methylpiperazin-1-yl)-7,10-dimethyl-5-oxo-1,3,4,5-tetrahydro-2H-chromeno[3,4-c]pyridine-3-carbonyl)-N-((1-methylcyclopropyl)sulfonyl)benzamide] | 10 to 100 | 1 to 10 | H (>9.0 to 30)
6 | COC[C@H]1CN(c2cc(Cl)c3c4c(c(=O)oc3c2C)CN(C(=O)c2cc(N(C)C)c(C(=O)NS(=O)(=O)N3CCCC5(COC5)C3)cc2F)CC4)CCN1C [Example 272, (R)-N-((2-oxa-6-azaspiro[3.5]nonan-6-yl)sulfonyl)-4-(10-chloro-8-(3-(methoxymethyl)-4-methylpiperazin-1-yl)-7-methyl-5-oxo-1,3,4,5-tetrahydro-2H-chromeno[3,4-c]pyridine-3-carbonyl)-2-(dimethylamino)-5-fluorobenzamide] | 100 to 1000 | 10 to 100 | H (>9.0 to 30)
7 | COC[C@H]1CN(c2cc(C)c3c4c(c(=O)oc3c2C)CN(C(=O)c2ccc(C(=O)NS(=O)(=O)N3CCCC3)c(OC3C[C@@H]5C[C@@H]5C3)c2)CC4)CCN1C (mixture of isomers) [Example 109, 2-(bicyclo[3.1.0]hexan-3-yloxy)-4-(8-((R)-3-(methoxymethyl)-4-methylpiperazin-1-yl)-7,10-dimethyl-5-oxo-1,3,4,5-tetrahydro-2H-chromeno[3,4-c]pyridine-3-carbonyl)-N-(pyrrolidin-1-ylsulfonyl)benzamide] | 10 to 100 | 10 to 100 | F (<3)
8 | COC[C@H]1CN(c2ccc3c4c(c(=O)oc3c2)CN(C(=O)c2ccc(C(=O)NS(=O)(=O)N3CCCC3)c(OC3CCC3)c2F)CC4)CCN1C [Example 182, (R)-2-cyclobutoxy-3-fluoro-4-(8-(3-(methoxymethyl)-4-methylpiperazin-1-yl)-5-oxo-1,3,4,5-tetrahydro-2H-chromeno[3,4-c]pyridine-3-carbonyl)-N-(pyrrolidin-1-ylsulfonyl)benzamide] | 1000 to 5000 | 100 to 1000 | G (^ 3 to 9.0)
9 | CCOc1c(C(=O)NS(=O)(=O)N2C3CCC2CC3)ccc(C(=O)N2CCc3c(c(=O)oc4c(Cl)c(N5CCN(C)[C@@H](COC)C5)ccc34)C2)c1F [Example 209, (R)-N-((7-azabicyclo[2.2.1]heptan-7-yl)sulfonyl)-4-(7-chloro-8-(3-(methoxymethyl)-4-methylpiperazin-1-yl)-5-oxo-1,3,4,5-tetrahydro-2H-chromeno[3,4-c]pyridine-3-carbonyl)-2-ethoxy-3-fluorobenzamide] | 10 to 100 | 10 to 100 | F (<3)
10 | COC[C@H]1CN(c2cc(C)c3c4c(c(=O)oc3c2C)CN(C(=O)c2ccc(C(=O)NS(=O)(=O)N3CCCC3)c(N3CC5CC5C3)c2)CC4)CCN1C (stereo partly drawn) [Example 126, 2-(3-azabicyclo[3.1.0]hexan-3-yl)-4-(8-((R)-3-(methoxymethyl)-4-methylpiperazin-1-yl)-7,10-dimethyl-5-oxo-1,3,4,5-tetrahydro-2H-chromeno[3,4-c]pyridine-3-carbonyl)-N-(pyrrolidin-1-ylsulfonyl)benzamide] | 10 to 100 | 10 to 100 | F (<3)
11 | CCOc1cc(C(=O)N2CCc3c(c(=O)oc4c(C)c(N5CCN(C)[C@@H](COC)C5)cc(Cl)c34)C2)c(F)cc1C(=O)NS(=O)(=O)N1CC2CCC(C1)O2 [Example 301, N-((8-oxa-3-azabicyclo[3.2.1]octan-3-yl)sulfonyl)-4-(10-chloro-8-((R)-3-(methoxymethyl)-4-methylpiperazin-1-yl)-7-methyl-5-oxo-1,3,4,5-tetrahydro-2H-chromeno[3,4-c]pyridine-3-carbonyl)-2-ethoxy-5-fluorobenzamide] | 100 to 1000 | 10 to 100 | J (>30)
12 | COC[C@H]1CN(c2cc(F)c3c4c(c(=O)oc3c2C)CN(C(=O)c2cc(OC)c(C(=O)NS(=O)(=O)N3CCCC3)cc2F)CC4)CCN1C [Example 309, (R)-5-fluoro-4-(10-fluoro-8-(3-(methoxymethyl)-4-methylpiperazin-1-yl)-7-methyl-5-oxo-1,3,4,5-tetrahydro-2H-chromeno[3,4-c]pyridine-3-carbonyl)-2-methoxy-N-(pyrrolidin-1-ylsulfonyl)benzamide] | 1000 to 5000 | 10 to 100 | J (>30)
13 | COC[C@H]1CN(c2cc(C)c3c4c(c(=O)oc3c2C)CN(C(=O)c2ccc(C(=O)NS(=O)(=O)N(C)C)c(OC3C5CC6CC(C5)CC3C6)c2F)CC4)CCN1C (stereo partly drawn) [Example 90, 2-((adamantan-2-yl)oxy)-N-(N,N-dimethylsulfamoyl)-3-fluoro-4-(8-((R)-3-(methoxymethyl)-4-methylpiperazin-1-yl)-7,10-dimethyl-5-oxo-1,3,4,5-tetrahydro-2H-chromeno[3,4-c]pyridine-3-carbonyl)benzamide] | 10 to 100 | 10 to 100 | –

Source: US12662489B2 (Sitryx Therapeutics Limited, priority 2023, dated 2026)
